Experimental data reported in ChEMBL document CHEMBL1649182, “Binding of faropenem and other beta-lactam agents to penicillin-binding proteins of pneumococci with various beta-lactam susceptibilities” (Antimicrob Agents Chemother, 2009).
Values after ≈ are worked out from the molar mass of the structure shown.

Legend:
[1] = Displacement of Biocillin FL from Streptococcus pneumoniae 3665 PBP3
[2] = system: Streptococcus pneumoniae; assay: Antimicrobial activity against Streptococcus pneumoniae serotype 19A; type: functional

Structure (SMILES) | IC50 [1] [µg/mL] | MIC90 [2] [µg/mL]
CC1(C)S[C@@H]2[C@H](NC(=O)[C@H](N)c3ccc(O)cc3)C(=O)N2[C@H]1C(=O)O [AMOXICILLIN] | 0.019 (≈ 0.052 µM) | 
CO/N=C(\C(=O)N[C@@H]1C(=O)N2C(C(=O)O)=C(COC(N)=O)CS[C@H]12)c1ccco1 [CEFUROXIME] | 0.047 (≈ 0.111 µM) | 
C[C@@H](O)[C@H]1C(=O)N2C(C(=O)O)=C([C@H]3CCCO3)S[C@H]12 [FAROPENEM] | 0.005 (≈ 0.0175 µM) | 1 (≈ 3.5 µM)
C[C@@H](O)[C@H]1C(=O)N2C(C(=O)O)=C(SCCNC=N)C[C@H]12 [IMIPENEM ANHYDROUS] | 0.171 (≈ 0.571 µM) | 
CC1(C)S[C@@H]2[C@H](NC(=O)Cc3ccccc3)C(=O)N2[C@H]1C(=O)O [PENICILLIN G] | 0.01 (≈ 0.0299 µM) | 
